Measurements reported in PMC7403315, “Cyclic peptide FXII inhibitor provides safe anticoagulation in a thrombosis model and in artificial lungs” (Nature Communications, 2020).
Several values for one entry are separate records, joined by “and”; a condition that tells them apart may be missing. Identical values can stand only once. Starred links: 1 amine or outer side, 2 acyl side, 3 side chain; linkers in the order of their positions; H or OH if unused. Positions of bridges follow the written chain, without caps; N, C: chain ends. Non-standard residues stand in square brackets, D forms with d. Residues, ends and D or L forms follow the SMILES beside them. TATA = O=C(CC[*:1])N1CN(C(=O)CC[*:2])CN(C(=O)CC[*:3])C1; Phe(4-F) = N[C@@H](Cc1ccc(F)cc1)C(=O)O; β3hR = N=C(N)NCCC[C@H](N)CC(=O)O

Assays:
Mouse α-FXIIa = biological target: T1, Mouse α-FXIIa (Mus musculus, UniProt Q80YC5); test: FXIIa protease inhibition assay with fluorogenic substrate Boc-Gln-Gly-Arg-AMC; format: biochemical; settings: purified peptide without coumarin label; read-out: Ki mouse FXIIa
T1 construct: Mouse α-FXIIa; purchased Molecular Innovations MFXIIA
T1 sequence (Q80YC5 355-597 limits assumed): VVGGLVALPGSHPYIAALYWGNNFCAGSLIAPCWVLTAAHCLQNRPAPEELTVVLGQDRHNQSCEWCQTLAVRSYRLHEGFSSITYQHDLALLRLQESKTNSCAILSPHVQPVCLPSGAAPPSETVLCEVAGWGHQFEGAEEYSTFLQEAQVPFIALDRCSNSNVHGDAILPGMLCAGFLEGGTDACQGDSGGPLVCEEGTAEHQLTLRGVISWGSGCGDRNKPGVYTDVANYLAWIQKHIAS
T1 sequence (Q80YC5 20-354 limits assumed): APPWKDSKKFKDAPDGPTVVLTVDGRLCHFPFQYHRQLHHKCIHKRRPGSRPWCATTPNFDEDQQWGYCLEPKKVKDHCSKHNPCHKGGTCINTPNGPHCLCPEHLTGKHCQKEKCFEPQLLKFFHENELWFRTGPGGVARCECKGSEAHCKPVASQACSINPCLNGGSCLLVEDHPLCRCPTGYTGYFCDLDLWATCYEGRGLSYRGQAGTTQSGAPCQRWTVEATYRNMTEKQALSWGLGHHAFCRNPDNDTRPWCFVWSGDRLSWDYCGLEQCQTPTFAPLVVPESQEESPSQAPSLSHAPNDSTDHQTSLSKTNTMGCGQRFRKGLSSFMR
Procedure: (§1) In order to test the inhibitory activity of peptides without prior purification, we developed the following method. […] After solid-phase peptide synthesis, cleavage, and ether precipitation, the peptides were chemically cyclized and their Ki values were determined in a FXIIa activity assay using a fluorogenic substrate.
(§2) Protease inhibition assays
(§3) The inhibitory activity of peptides was determined by measuring the residual protease activity with a fluorogenic substrate. The assay was performed in buffer containing 10 mM Tris-Cl, pH […]
(§4) 1% (v/v) DMSO in a volume of 150 µl. FXIIa activity was measured with the fluorogenic substrate Boc-Gln-Gly-Arg-AMC (Bachem) at a final concentration of 50 µM. Mouse α-FXIIa (Molecular Innovations cat # MFXIIA) and human β-FXIIa (Molecular Innovations cat # HFXIIAB) were used at final concentrations of 0.4 nM. The reaction was pipetted as follows: 50 µl of bicyclic peptide in assay buffer were added to 50 µl of FXIIa in assay buffer and incubated for 10 minutes at 25°C before 50 µl of 150 µM fluorogenic substrate in assay buffer were added to measure the residual protease activity with an Infinite M200Pro fluorescence plate reader (excitation at 368 nm, emission at 467 nm; Tecan) for a period of 30 minutes with a read every minute at 25°C. The Tecan software i-control (version 1.1) was used for data analysis. Stock solutions of 1 mM bicyclic peptide were prepared by either dissolving the unpurified cyclization reaction with water or by dissolving purified and lyophilized peptide in water. The bicyclic peptides were serially diluted two-fold using assay buffer. Sigmoidal curves were fitted to the data using the following dose response equation (1), wherein x = peptide concentration, y = % protease activity, and p = Hill slope. IC50 values were derived from the fitted curve.
(§5) The inhibition constants (Ki) were calculated according to the equation of Cheng and Prusoff, Ki = IC50/(1+([S]0/Km), wherein IC50 is the functional strength of the inhibitor, [S]0 is the total substrate concentration, and Km is the Michaelis-Menten constant. […]
(§6) the substrate Boc-Gln-Gly-Arg-AMC. […]

human β-FXIIa = biological target: T2, human β-FXIIa (Homo sapiens, UniProt P00748); test: as above; format: biochemical; settings: for Ki: purified peptide without coumarin label, read-out: Ki human FXIIa
T2 construct: human β-FXIIa (Molecular Innovations cat #); purchased Molecular Innovations HFXIIAB; host or cells: human blood
T2 sequence (P00748 373-615 limits assumed, other chains not shown): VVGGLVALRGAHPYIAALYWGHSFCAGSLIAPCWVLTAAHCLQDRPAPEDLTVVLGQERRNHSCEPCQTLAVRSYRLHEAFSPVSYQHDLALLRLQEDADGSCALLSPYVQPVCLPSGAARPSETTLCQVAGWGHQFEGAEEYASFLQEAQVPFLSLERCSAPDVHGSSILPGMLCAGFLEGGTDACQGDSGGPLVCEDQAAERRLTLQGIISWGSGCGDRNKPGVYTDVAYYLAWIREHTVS
Procedure: as §1, §2, §3, §4, §5, §6

[1] = Plasma stability assay (residual FXIIa inhibitory activity after plasma incubation); format: in vitro ADME, human; settings: human, plasma
Procedure: Peptide (2 μl of 2 mM in H2O) was added to 398 μl of citrated human plasma (Innovative Research) to obtain a final peptide concentration of 10 μM. The mixture was incubated in a water bath at 37 °C. At different time points (0, 0.5, 1, 2, 4, 8, 12, 24, 48, and 96 h), samples of 30 μl were removed, diluted to 200 μl with aqueous buffer (10 mM Tris-HCl, pH 7.4, 150 mM NaCl, 10 mM MgCl2, 1 mM CaCl2), and incubated for 20 min at 65 °C to inactivate plasma proteases. The peptide/plasma samples were stored at −20 °C until the residual inhibitory activity of the peptides was measured in a FXIIa inhibition assay. […] IC50 values were derived from the fitted curve using an equation described in the Supplementary Methods. Residual inhibition in % was calculated using the equation IC50,0h/IC50,xh*100, wherein IC50,0h is the functional strength of the inhibitor at time point 0 and IC50,xh the functional strength of the inhibitor after one of the different plasma incubation periods mentioned above.

[2] = inhibitor 0.390625 nM, 0.000390625 µM
[3] = inhibitor 0.390625 nM, read-out: Residual activity of human FXIIa
[4] = inhibitor 0.78125 nM, 0.00078125 µM
[5] = inhibitor 0.78125 nM, read-out: Residual activity of human FXIIa
[6] = inhibitor 1.5625 nM, 0.0015625 µM
[7] = inhibitor 1.5625 nM, read-out: Residual activity of human FXIIa
[8] = inhibitor 3.125 nM, 0.003125 µM
[9] = inhibitor 3.125 nM, read-out: Residual activity of human FXIIa
[10] = inhibitor 6.25 nM, read-out: Residual activity of human FXIIa
[11] = inhibitor 12.5 nM, read-out: Residual activity of human FXIIa

Structure (SMILES)	Ki (Mouse α-FXIIa) [nM]	Residual activity of human FXIIa (human β-FXIIa; [2]) [%]	remaining activity at 0.000390625 µM (human β-FXIIa; [3]) [%]	Residual activity of human FXIIa (human β-FXIIa; [4]) [%]	remaining activity at 0.00078125 µM (human β-FXIIa; [5]) [%]	Residual activity of human FXIIa (human β-FXIIa; [6]) [%]	remaining activity at 0.0015625 µM (human β-FXIIa; [7]) [%]	Residual activity of human FXIIa (human β-FXIIa; [8]) [%]	remaining activity at 0.003125 µM (human β-FXIIa; [9]) [%]	Residual activity of human FXIIa (human β-FXIIa; inhibitor 6.25 nM, 0.00625 µM) [%]	remaining activity at 0.00625 µM (human β-FXIIa; [10]) [%]	Residual activity of human FXIIa (human β-FXIIa; inhibitor 12.5 nM, 0.0125 µM) [%]	remaining activity at 0.0125 µM (human β-FXIIa; [11]) [%]	Residual activity of human FXIIa (human β-FXIIa; inhibitor 50 nM, 0.05 µM)	Residual activity of human FXIIa (human β-FXIIa; inhibitor 100 nM, 0.1 µM)	Residual activity of human FXIIa (human β-FXIIa; inhibitor 200 nM, 0.2 µM)	Residual activity of human FXIIa (human β-FXIIa; inhibitor 400 nM, 0.4 µM)	Ki (human β-FXIIa) [nM]	also measured
CC(C)C[C@@H]1NC(=O)[C@H](CCC(N)=O)NC(=O)[C@H](CCCNC(=N)N)NC(=O)[C@@H]2CSCCC(=O)N3CN(CN(C3)C(=O)CCSC[C@H](NC(=O)[C@@H](CO)NC(=O)[C@H](N)CCCNC(=N)N)C(=O)N[C@@H](Cc3ccccc3)C(=O)N[C@@H](CCCNC(=N)N)C(=O)N[C@@H](CC(C)C)C(=O)N3CCC[C@H]3C(=O)N2)C(=O)CCSC[C@@H](C(=O)N[C@@H](CCCNC(=N)N)C(N)=O)NC(=O)[C@H](CCCNC(=N)N)NC1=O [FXII850] (HELM PEPTIDE1{[dR].[dS].C.F.R.L.P.C.R.Q.L.R.C.R.[am]}|CHEM1{[O=C(CC[*:1])N1CN(C(=O)CC[*:2])CN(C(=O)CC[*:3])C1]}$PEPTIDE1,CHEM1,3:R3-1:R1|PEPTIDE1,CHEM1,8:R3-1:R2|PEPTIDE1,CHEM1,13:R3-1:R3$$$V2.0)	35	94.4127	97.1	86.6748	93.2	72.1433	82.9	57.4159	73.8	39.85	56.3	25.3131	37.4	12.7513% and 5.338%	6.402% and 0.6734%	3.022% and 0%	1.539% and 0%	5	half-life at 10 μM [1]: 18.5 h
CC(C)C[C@@H]1NC(=O)[C@H](CCC(N)=O)NC(=O)[C@H](Cc2c[nH]cn2)NC(=O)[C@@H]2CSCCC(=O)N3CN(CN(C3)C(=O)CCSC[C@H](NC(=O)[C@@H](CO)NC(=O)[C@H](N)CCCNC(=N)N)C(=O)N[C@@H](Cc3ccc(F)cc3)C(=O)N[C@@H](CCCNC(=N)N)C(=O)N[C@@H](CC(C)C)C(=O)N3CCC[C@H]3C(=O)N2)C(=O)CCSC[C@@H](C(=O)N[C@@H](CCCNC(=N)N)C(N)=O)NC(=O)C[C@H](CCCNC(=N)N)NC1=O [FXII900 (with C-term Arg)] (H-[dR][dS]C[Phe(4-F)]RLPCHQL[β3hR]CR-NH2; linker 3-8-13 via TATA)	0.5 ± 0.15	–	–	–	–	–	–	–	–	–	–	–	–	–	–	–	–	0.34 ± 0.03	–
CC(C)C[C@@H]1NC(=O)[C@H](CCC(N)=O)NC(=O)[C@H](Cc2c[nH]cn2)NC(=O)[C@@H]2CSCCC(=O)N3CN(CN(C3)C(=O)CCSC[C@H](NC(=O)[C@@H](N)CCCNC(=N)N)C(=O)N[C@@H](Cc3ccccc3)C(=O)N[C@@H](CCCNC(=N)N)C(=O)N[C@@H](CC(C)C)C(=O)N3CCC[C@H]3C(=O)N2)C(=O)CCSC[C@@H](C(=O)N[C@@H](CCCNC(=N)N)C(N)=O)NC(=O)[C@H](CCCNC(=N)N)NC1=O [FXII851] (HELM PEPTIDE1{R.C.F.R.L.P.C.H.Q.L.R.C.R.[am]}|CHEM1{[O=C(CC[*:1])N1CN(C(=O)CC[*:2])CN(C(=O)CC[*:3])C1]}$PEPTIDE1,CHEM1,2:R3-1:R1|PEPTIDE1,CHEM1,7:R3-1:R2|PEPTIDE1,CHEM1,12:R3-1:R3$$$V2.0)	36	96.2983	93.8	91.5155	90.5	83.5319	84.1	70.2169	72.3	54.9417	56.8	37.7877	38.2	12.5321%	6.25%	1.167% and 2.638%	1.099%	6.5	Residual activity of human FXIIa (human β-FXIIa; inhibitor 25 nM, […]): 23.2045%; remaining activity at […] (human β-FXIIa; inhibitor 25 nM, read-out: Residual activity of human FXIIa): 25%; remaining activity at 0.05 µM (human β-FXIIa; inhibitor 50 nM, read-out: Residual activity of human FXIIa): 14.1%; remaining activity at 0.1 µM (human β-FXIIa; inhibitor 100 nM, read-out: Residual activity of human FXIIa): 6.97%; remaining activity at 0.4 µM (human β-FXIIa; inhibitor 400 nM, read-out: Residual activity of human FXIIa): 1.94%
CC(C)C[C@@H]1NC(=O)[C@H](CCC(N)=O)NC(=O)[C@H](CCCNC(=N)N)NC(=O)[C@@H]2CSCCC(=O)N3CN(CN(C3)C(=O)CCSC[C@H](NC(=O)[C@@H](CO)NC(=O)[C@H](N)CCCNC(=N)N)C(=O)N[C@@H](Cc3ccc(F)cc3)C(=O)N[C@@H](CCCNC(=N)N)C(=O)N[C@@H](CC(C)C)C(=O)N3CCC[C@H]3C(=O)N2)C(=O)CCSC[C@@H](C(=O)N[C@@H](CCCNC(=N)N)C(N)=O)NC(=O)C[C@H](CCCNC(=N)N)NC1=O [Arg8His reverted] (H-[dR][dS]C[Phe(4-F)]RLPCRQL[β3hR]CR-NH2; linker 3-8-13 via TATA)	0.91 ± 0.04	–	–	–	–	–	–	–	–	–	–	–	–	–	–	–	–	0.31 ± 0.02	–
CC(C)C[C@@H]1NC(=O)[C@H](CCC(N)=O)NC(=O)[C@H](Cc2c[nH]cn2)NC(=O)[C@@H]2CSCCC(=O)N3CN(CN(C3)C(=O)CCSC[C@H](NC(=O)[C@@H](CO)NC(=O)[C@H](N)CCCNC(=N)N)C(=O)N[C@@H](Cc3ccccc3)C(=O)N[C@@H](CCCNC(=N)N)C(=O)N[C@@H](CC(C)C)C(=O)N3CCC[C@H]3C(=O)N2)C(=O)CCSC[C@@H](C(=O)N[C@@H](CCCNC(=N)N)C(N)=O)NC(=O)C[C@H](CCCNC(=N)N)NC1=O [Phe3Phe4F reverted] (HELM PEPTIDE1{[dR].[dS].C.F.R.L.P.C.H.Q.L.[N=C(N)NCCC[C@@H](CC(=O)[*:2])N[*:1]].C.R.[am]}|CHEM1{[O=C(CC[*:1])N1CN(C(=O)CC[*:2])CN(C(=O)CC[*:3])C1]}$PEPTIDE1,CHEM1,3:R3-1:R1|PEPTIDE1,CHEM1,8:R3-1:R2|PEPTIDE1,CHEM1,13:R3-1:R3$$$V2.0)	1.9 ± 0.5	–	–	–	–	–	–	–	–	–	–	–	–	–	–	–	–	0.7 ± 0.06	–
